Data set [1] relates to Rattus norvegicus. As to the kind of experiment: Antiinflammatory activity against carrageenan-induced paw edema in rat at dose equimolar to 10 mg/kg aspirin, po administered 1 hr before carrageenan challenge measured after 6 hrs by plethysmometer. Type of data set: functional.
For data set [2], the system named is Rattus norvegicus. Briefly: Gastrointestinal toxicity in rat assessed as ulcerogenic index at dose equimolar to 100 mg/kg of aspirin, po after 3 hrs. It is filed as organism-based. The following applies: in vivo. Set-up: dose 100 mg/kg, route oral.
The subject of data set [3] is Rattus norvegicus. Briefly: Effect on nitric oxide release in rat assessed as plasma nitrate/nitrite concentration at dose equimolar to 10 mg/kg of diclofenac, po by Griess method. It is filed as functional, organism-based. Set-up: dose 10 mg/kg.
Data set [4] has as its system Rattus norvegicus. As to the kind of experiment: Gastrointestinal toxicity in rat assessed as ulcerogenic index at dose equimolar to 100 mg/kg of diclofenac, po after 5 hrs. It is filed as organism-based. Set-up: dose 100 mg/kg, route oral. Particulars: in vivo.
In data set [5] the test system is Rattus norvegicus. As to the kind of experiment: AUC in rat at po dose of equimolar to aspirin. It is filed as ADME, organism-based, Plasma. The following applies: in vivo.
Data set [6] has as its system Rattus norvegicus. As to the kind of experiment: Antiinflammatory activity against carrageenan-induced paw edema in rat at dose equimolar to 150 mg/kg aspirin, po administered 1 hr before carrageenan challenge measured after 4 hrs by plethysmometer. Type of data set: functional. Particulars: at 150 mg/kg.
The subject of data set [7] is Rattus norvegicus. Briefly: Antiinflammatory activity against carrageenan-induced paw edema in rat at dose equimolar to 150 mg/kg aspirin, po administered 1 hr before carrageenan challenge measured after 6 hrs by plethysmometer. It is filed as functional.
Data set [8] deals with Rattus norvegicus. As to the kind of experiment: AUC in rat at 35 mg/kg, po. It is filed as ADME, organism-based, Plasma. Set-up: dose 35 mg/kg, route oral. Particulars: in vivo.
Data set [9] is described as follows: AUC in rat at 150 mg/kg, po. Set-up: dose 150 mg/kg, route oral. It is filed as ADME, organism-based. The following applies: plasma.
The subject of data set [10] is Rattus norvegicus. As to the kind of experiment: Antiinflammatory activity against carrageenan-induced paw edema in rat at 150 mg/kg, po administered 1 hr before carrageenan challenge measured after 4 hrs by plethysmometer. Type of data set: functional.
In data set [11] the test system is Rattus norvegicus. Briefly: Antiinflammatory activity against carrageenan-induced paw edema in rat at 150 mg/kg, po administered 1 hr before carrageenan challenge measured after 6 hrs by plethysmometer. It is filed as functional.
Data set [12] has as its system Rattus norvegicus. Briefly: Gastrointestinal toxicity in rat assessed as ulcerogenic index at 100 mg/kg, po after 5 hrs. Type of data set: organism-based. Particulars: in vivo. Also noted: dose 100 mg/kg, route oral.
In data set [13] the test system is Rattus norvegicus. As to the kind of experiment: Antiinflammatory activity against carrageenan-induced paw edema in rat at 10 mg/kg, po administered 1 hr before carrageenan challenge measured after 4 hrs by plethysmometer. It is filed as functional.
Data set [14] relates to Rattus norvegicus. Briefly: Gastrointestinal toxicity in rat assessed as ulcerogenic index at 100 mg/kg, po after 3 hrs. Type of data set: organism-based. Also noted: dose 100 mg/kg, route oral. The following applies: in vivo.
In data set [15] the test system is Rattus norvegicus. As to the kind of experiment: Antiinflammatory activity against carrageenan-induced paw edema in rat at 10 mg/kg, po administered 1 hr before carrageenan challenge measured after 6 hrs by plethysmometer. It is filed as functional.
A short description of data set [16]: AUC in rat at 10 mg/kg, po. Set-up: dose 10 mg/kg, route oral. Type of data set: ADME, organism-based. The following applies: plasma.

Here are results for 6 compounds from ChEMBL document CHEMBL1155994, “NO-NSAIDs: Gastric-sparing nitric oxide-releasable prodrugs of non-steroidal anti-inflammatory drugs” (Bioorg Med Chem Lett, 2009).

Each structure is given as a SMILES string. Active and inactive are the calls of the source. The calls are words filed in the database; no cut-off is given here.

Regarding `O=C(COC(=O)Cc1ccccc1Nc1c(Cl)cccc1Cl)OCCSSCCO[N+](=O)[O-]`, the outcome in the data set on Rattus norvegicus [1] was inactive.

With `O=C(Cc1ccccc1Nc1c(Cl)cccc1Cl)OCCSSCCO[N+](=O)[O-]`, in the data set on Rattus norvegicus [2], the UI turned out to be 0 mm2. In the data set on Rattus norvegicus [3], the outcome was Active.

As for `CC(=O)Oc1ccccc1C(=O)OCCSSCCO[N+](=O)[O-]`, the UI with Rattus norvegicus [4] is listed as 0 mm2. The AUC in the data set with Rattus norvegicus [5] was 749 ug/hr.ml.

Turning to `CC(=O)Oc1ccccc1C(=O)OCC(=O)OCCSSCCO[N+](=O)[O-]`, the inhibition entry with Rattus norvegicus [6] was “inactive”. Also, the outcome in the data set with Rattus norvegicus [7] was inactive.

For the compound `CC(=O)Oc1ccccc1C(=O)O` [ASPIRIN], the AUC was found to be 909 ug/hr.ml in the data set with Rattus norvegicus [8] and 4050 µg·h/mL in data set [9]. In addition, the inhibition in vivo at 150 mg/kg in the data set with Rattus norvegicus [10] came to 30%; in the data set on Rattus norvegicus [11], 31%. Besides, in the data set on Rattus norvegicus [12], the UI was 99 mm2.

`O=C(O)Cc1ccccc1Nc1c(Cl)cccc1Cl` [DICLOFENAC] registered an Activity with Rattus norvegicus [13] of 55%. Besides, the UI in the data set on Rattus norvegicus [14] is 108 mm2. Besides, in the data set on Rattus norvegicus [15], the inhibition in vivo at 10 mg/kg turned out to be 21%. For the same compound, the AUC in [16] turned out to be 65 µg·h/mL.
